Results from patent publication US20040029965A1, “Formulations for reducing or eliminating toxicity of enviromental hormones containing ursodeoxycholic acid” (priority 2000, published 2004).

Key:
C57B1/6J mice [1] = test: Organ weights (liver, kidneys, testes, epididymides) of mice after a single subcutaneous injection of TCDD; assay type: in vivo
Experimental: Male C57B1/6J mice of 5 weeks old having the average weight of 18-22 g which had been bred in CRJ (Charles River in Japan) were purchased and used in this example as experimental animals. Those mice were acclimated under the constant breeding condition, i.e. the temperature of 24±1° C., the humidity of 60±10% and the light and darkness cycle of 12 hours, for one week and thereafter, utilized in the experiment.
(§1) 2,3,7,8-tetrachlorodibenzo-p-dioxin (TCDD) dissolved in toluene (purity of 95% or more as a result of gas chromatography analysis), manufactured by Chem. Services Inc. in USA, was volatilized with nitrogen to obtain powder. The obtained powder was dissolved in a mixed solvent containing acetone and corn oil with a volume ratio of 1:6. The resulting solution each containing 110, 27.5 and 6.9 μg/kg of TCDD was subcutaneously injected to mice at a volume of 5 ml per body weight. […] The mice were supplied with the feed from 10 days before (pre-administration) to 60 days after administration of TCDD (post-administration).
(§2) Upon completion of the experiment for 60 days, the experimental animals were fasted for 24 hours and anesthetized with ether. Then, they were abdominally incised and blood was gathered from abdominal vena cava. They were sacrificed by the release of blood. Liver, kidneys, testes and epididymides were extracted and all the extracted organs were weighed. Only the testes were separately kept and observed under optical and electron microscopes. For biochemical finding test, serum was separated from blood with a centrifuge and the separated serum was analyzed with an automated blood biochemical analyzer, Dimension (Dupont, USA). Blood was put to another blood gathering bottle and then, analyzed with an automated blood cell analyzer, Celldyn (Abbott, USA).
The results are expressed as Mean±Standard Deviation values. For statistical analysis of the body weight, feed and water uptake, biochemical findings, hematological findings and the weight of organ in an acute toxicity test, verification was performed by one way analysis of variance (ANOVA) in case of equal distribution. In case significance was recognized in ANOVA, the Student's t-test was performed in the levels of p<0.05 and p<0.01.
The organs, i.e. liver, kidneys, testes and epididymides, were weighed and the results are shown in the following.

C57B1/6J mice [2] = test: Optical microscopy of testes (histopathological findings); assay type: in vivo; conditions: TCDD 27.5 μg/kg alone; FIG. 2
Experimental: as §1, §2
The extracted testes were fixed in 10% neutralized formalin buffer for 24 hours and washed with the flowing water. It was subsequently dehydrated with ethanol and cleared with xylene and then, embedded with paraffin. It was sectioned with microtome (microm is HM 440E) to a thickness of 2-3 μm and then, double stained with hematoxylin and eosin to observe under an optical microscope.

Clc1cc2c(cc1Cl)Oc1cc(Cl)c(Cl)cc1O2 [TCDD, 2,3,7,8-tetrachlorodibenzo-p-dioxin]
Left epididymis Relative weight (C57B1/6J mice [1]; TCDD 6.9 μg/kg alone): 0.101 ± 0.012% | Left epididymis Weight (C57B1/6J mice [1]; TCDD 6.9 μg/kg alone): 0.023 ± 0.005 g | Left kidney Relative weight (C57B1/6J mice [1]; TCDD 6.9 μg/kg alone): 0.508 ± 0.050% | Left kidney Weight (C57B1/6J mice [1]; TCDD 6.9 μg/kg alone): 0.115 ± 0.018 g | Left testis Relative weight (C57B1/6J mice [1]; TCDD 6.9 μg/kg alone): 0.296 ± 0.030% | Left testis Weight (C57B1/6J mice [1]; TCDD 6.9 μg/kg alone): 0.067 ± 0.011 g | Liver Relative weight (C57B1/6J mice [1]; TCDD 6.9 μg/kg alone): 4.092% | Liver Weight (C57B1/6J mice [1]; TCDD 6.9 μg/kg alone): 0.935 ± 0.173 g | Right epididymis Relative weight (C57B1/6J mice [1]; TCDD 6.9 μg/kg alone): 0.110 ± 0.027% | Right epididymis Weight (C57B1/6J mice [1]; TCDD 6.9 μg/kg alone): 0.025 ± 0.007 g | Right kidney Relative weight (C57B1/6J mice [1]; TCDD 6.9 μg/kg alone): 0.513 ± 0.066% | Right kidney Weight (C57B1/6J mice [1]; TCDD 6.9 μg/kg alone): 0.117 ± 0.022 g | Right testis Relative weight (C57B1/6J mice [1]; TCDD 6.9 μg/kg alone): 0.285 ± 0.035% | Right testis Weight (C57B1/6J mice [1]; TCDD 6.9 μg/kg alone): 0.65 ± 0.010 g | Left epididymis Relative weight (C57B1/6J mice [1]; TCDD 27.5 μg/kg alone): 0.124 ± 0.024 % | Left epididymis Weight (C57B1/6J mice [1]; TCDD 27.5 μg/kg alone): 0.021 ± 0.006 g | Left kidney Relative weight (C57B1/6J mice [1]; TCDD 27.5 μg/kg alone): 0.625 ± 0.037 % | Left kidney Weight (C57B1/6J mice [1]; TCDD 27.5 μg/kg alone): 0.101 ± 0.012 g | Left testis Relative weight (C57B1/6J mice [1]; TCDD 27.5 μg/kg alone): 0.356 ± 0.051 % | Left testis Weight (C57B1/6J mice [1]; TCDD 27.5 μg/kg alone): 0.058 ± 0.014 g | Liver Relative weight (C57B1/6J mice [1]; TCDD 27.5 μg/kg alone): 4.506% | Liver Weight (C57B1/6J mice [1]; TCDD 27.5 μg/kg alone): 0.734 ± 0.151 g | Right epididymis Relative weight (C57B1/6J mice [1]; TCDD 27.5 μg/kg alone): 0.129 ± 0.027 % | Right epididymis Weight (C57B1/6J mice [1]; TCDD 27.5 μg/kg alone): 0.021 ± 0.006 g | Right kidney Relative weight (C57B1/6J mice [1]; TCDD 27.5 μg/kg alone): 0.571 ± 0.030 % | Right kidney Weight (C57B1/6J mice [1]; TCDD 27.5 μg/kg alone): 0.092 ± 0.012 g | Right testis Relative weight (C57B1/6J mice [1]; TCDD 27.5 μg/kg alone): 0.352 ± 0.059 % | Right testis Weight (C57B1/6J mice [1]; TCDD 27.5 μg/kg alone): 0.058 ± 0.015 g | seminiferous tubules, optical microphotograph (C57B1/6J mice [2]): remarkably reduced spermatogenesis was observed
